US20130096321A1, “CRYSTALLINE ROTIGOTINE BASE AND PREPARATION PROCESS THEREFOR” (CHEMAGIS LTD., priority 2007, published 2013)

Test: Thermogravimetric analysis (TGA) of rotigotine base crystalline Form I
Assay type: physicochemical
Conditions: platinum baskets, heating rate 5° C./minute, FIG. 4
Procedure: Rotigotine base crystalline form I produces a TGA curve as depicted in FIG. 4. […] The TGA measurement was performed using a TA instruments Q500 Thermal analyzer with Universal Software (version 3.88). Samples were analyzed inside platinum baskets at heating rate of 5° C./minute.

CCCN(CCc1cccs1)[C@H]1CCc2c(O)cccc2C1 [crystalline rotigotine base Form I, (S)-(−)-5-hydroxy-2-(N-n-propyl-N-2-thienylethyl)-aminotetralin]
decomposition on heating (from TGA curve): does not decompose on heating
thermal stability (from TGA curve): thermally stable
